Assay results: PubChem BioAssay AID248 (DTP/NCI, 2004)
Values joined by “and” are separate entries in the source; they are usually repeats but may differ in a detail not shown here. Equal entries are not always repeated. Toxic doses and inconclusive results are not listed.

System: L1210 leukemia ip in BDF1 mice, survival T/C
Experiment: NCI In Vivo Anticancer Drug Screen. Data for tumor model L1210 Leukemia (intraperitoneal) in B6D2F1 (BDF1) mice
Details: endpoint: mean survival time, higher = longer survival
Procedure, shortened: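 Transplantable tumor model; survival measured in treated vs vehicle control mice. Value = treated/control.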

[1] = dose: 50.0 mg/kg/injection, schedule: Q01DX001 (ip), vehicle: saline
[2] = dose: 100.0 mg/kg/injection, schedule: Q01DX001 (ip), vehicle: saline
[3] = dose: 200.0 mg/kg/injection, schedule: Q01DX001 (ip), vehicle: saline
[4] = dose: 400.0 mg/kg/injection, schedule: Q01DX001 (ip), vehicle: saline
[5] = dose: 100.0 mg/kg/injection, schedule: Q04DX003 (ip), vehicle: saline
[6] = dose: 200.0 mg/kg/injection, schedule: Q04DX003 (ip), vehicle: saline
[7] = dose: 100.0 mg/kg/injection, schedule: Q01DX001 (ip), vehicle: Klucel (hydroxypropylcellulose) (HPC)
[8] = dose: 200.0 mg/kg/injection, schedule: Q01DX001 (ip), vehicle: Klucel (hydroxypropylcellulose) (HPC)
[9] = dose: 400.0 mg/kg/injection, schedule: Q01DX001 (ip), vehicle: Klucel (hydroxypropylcellulose) (HPC)
[10] = dose: 100.0 mg/kg/injection, schedule: Q01DX009 (ip), vehicle: saline with Tween-80
[11] = dose: 200.0 mg/kg/injection, schedule: Q01DX009 (ip), vehicle: saline with Tween-80

In the case of `CCOC(=O)/C=C(\C)N(C(=O)N(CCCl)N=O)c1ccccc1`, the T/C (dose: 0.12 mg/kg/injection, schedule: Q01DX009 (ip), vehicle: Klucel (hydroxypropylcellulose) (HPC)) is reported as 118 % of control, the T/C (dose: 0.5 mg/kg/injection, schedule: Q01DX009 (ip), vehicle: Klucel (hydroxypropylcellulose) (HPC)) is reported as 159 % of control and the T/C (dose: 1.0 mg/kg/injection, schedule: Q01DX001 (ip), vehicle: carboxymethylcellulose (CMC)) is reported as 103 % of control. The T/C (dose: 1.0 mg/kg/injection, schedule: Q01DX009 (ip), vehicle: Klucel (hydroxypropylcellulose) (HPC)) was 232 % of control, the T/C (dose: 2.0 mg/kg/injection, schedule: Q01DX001 (ip), vehicle: carboxymethylcellulose (CMC)) was 103 % of control and 119 % of control and the T/C (dose: 4.0 mg/kg/injection, schedule: Q01DX001 (ip), vehicle: carboxymethylcellulose (CMC)) was 109 % of control. The T/C (dose: 6.0 mg/kg/injection, schedule: Q01DX009 (ip), vehicle: carboxymethylcellulose (CMC)) was 161 % of control, the T/C (dose: 8.0 mg/kg/injection, schedule: Q01DX001 (ip), vehicle: carboxymethylcellulose (CMC)) was 104 % of control and the T/C (dose: 8.8 mg/kg/injection, schedule: Q01DX009 (ip), vehicle: carboxymethylcellulose (CMC)) was 163 % of control. The T/C (dose: 13.0 mg/kg/injection, schedule: Q01DX009 (ip), vehicle: Klucel (hydroxypropylcellulose) (HPC)) was 120 % of control, the T/C (dose: 13.3 mg/kg/injection, schedule: Q01DX009 (ip), vehicle: carboxymethylcellulose (CMC)) was 121 % of control and the T/C (dose: 15.0 mg/kg/injection, schedule: Q01DX001 (ip), vehicle: carboxymethylcellulose (CMC)) was 153 % of control. For the same compound, the T/C (dose: 20.0 mg/kg/injection, schedule: Q01DX009 (ip), vehicle: carboxymethylcellulose (CMC)) was 110 % of control, the T/C (dose: 30.0 mg/kg/injection, schedule: Q01DX001 (ip), vehicle: carboxymethylcellulose (CMC)) was 104 % of control and 231 % of control and 86 % of control and the T/C (dose: 30.0 mg/kg/injection, schedule: Q01DX009 (ip), vehicle: Klucel (hydroxypropylcellulose) (HPC)) was 90 % of control. For the same compound, the T/C (dose: 30.0 mg/kg/injection, schedule: Q01DX009 (ip), vehicle: carboxymethylcellulose (CMC)) was 100 % of control, the T/C (dose: 45.0 mg/kg/injection, schedule: Q01DX001 (ip), vehicle: carboxymethylcellulose (CMC)) was 155 % of control and the T/C (dose: 60.0 mg/kg/injection, schedule: Q01DX001 (ip), vehicle: carboxymethylcellulose (CMC)) was 109 % of control and 204 % of control. The T/C (dose: 120.0 mg/kg/injection, schedule: Q01DX001 (ip), vehicle: carboxymethylcellulose (CMC)) was 114 % of control.
With `COc1ccc2c(=O)c(O)c(-c3ccc(OC)c(OC)c3)oc2c1` the T/C [1] was 97 % of control, the T/C [2] was 94 % of control and the T/C [3] was 92 % of control. For the same compound, the T/C [4] was 94 % of control.
With `CCOCc1cc(Cc2cc(COCC)c3cccnc3c2O)c(O)c2ncccc12` the T/C (dose: 75.0 mg/kg/injection, schedule: Q01DX001 (ip), vehicle: carboxymethylcellulose (CMC)) was 97 % of control, the T/C (dose: 150.0 mg/kg/injection, schedule: Q01DX001 (ip), vehicle: carboxymethylcellulose (CMC)) was 105 % of control and the T/C (dose: 300.0 mg/kg/injection, schedule: Q01DX001 (ip), vehicle: carboxymethylcellulose (CMC)) was 103 % of control.
For `OC(c1ccc(Cl)cc1)c1nc2ccccc2[nH]1` (stereo not drawn), the T/C (dose: 100.0 mg/kg/injection, schedule: Q04DX002 (ip), vehicle: Klucel (hydroxypropylcellulose) (HPC)) was 100 % of control, the T/C (dose: 200.0 mg/kg/injection, schedule: Q04DX002 (ip), vehicle: Klucel (hydroxypropylcellulose) (HPC)) was 100 % of control and the T/C (dose: 400.0 mg/kg/injection, schedule: Q04DX002 (ip), vehicle: Klucel (hydroxypropylcellulose) (HPC)) was 103 % of control.
`O=C1C=CC(=C(Br)Br)O1` was tested, and the T/C (dose: 12.5 mg/kg/injection, schedule: Q04DX003 (ip), vehicle: saline with Tween-80) was 92 % of control, the T/C (dose: 12.5 mg/kg/injection, schedule: Q04DX003 (ip), vehicle: saline) was 97 % of control and the T/C (dose: 25.0 mg/kg/injection, schedule: Q04DX003 (ip), vehicle: saline with Tween-80) was 103 % of control. For the same compound, the T/C (dose: 25.0 mg/kg/injection, schedule: Q04DX003 (ip), vehicle: saline) was 95 % of control, the T/C (dose: 50.0 mg/kg/injection, schedule: Q04DX003 (ip), vehicle: saline) was 92 % of control and the T/C [5] was 98 % of control.
With `COC1OC(n2cnc3ncn(Cc4ccccc4)c3c2=N)C2OC(C)(C)OC12` (stereo not drawn) the T/C [5] was 97 % of control and the T/C [6] was 92 % of control.
With `Cc1ccc(N2CCN(CCCN3CCN(c4ccc(Cl)cc4)CC3)CC2)cc1` the T/C (dose: 8.0 mg/kg/injection, schedule: Q01DX Z (ip), vehicle: carboxymethylcellulose (CMC)) was 98 % of control, the T/C (dose: 16.0 mg/kg/injection, schedule: Q01DX Z (ip), vehicle: carboxymethylcellulose (CMC)) was 95 % of control and the T/C (dose: 100.0 mg/kg/injection, schedule: Q04DX003 (ip), vehicle: Klucel (hydroxypropylcellulose) (HPC)) was 109 % of control.
With `COc1ccc([N+](=O)[O-])cc1NC(=O)Oc1ccc(F)cc1` the T/C (dose: 50.0 mg/kg/injection, schedule: Q01DX009 (ip), vehicle: Klucel (hydroxypropylcellulose) (HPC)) was 100 % of control, the T/C (dose: 100.0 mg/kg/injection, schedule: Q01DX009 (ip), vehicle: Klucel (hydroxypropylcellulose) (HPC)) was 92 % of control and the T/C (dose: 200.0 mg/kg/injection, schedule: Q01DX009 (ip), vehicle: Klucel (hydroxypropylcellulose) (HPC)) was 96 % of control.
`[NH-]C(CC(N)=O)C(=O)O.[NH-]C(CC(N)=O)C(=O)O.[Zn+2]` (stereo not drawn) was tested, and the T/C (dose: 25.0 mg/kg/injection, schedule: Q04DX002 (ip), vehicle: saline) was 92 % of control and the T/C (dose: 50.0 mg/kg/injection, schedule: Q04DX002 (ip), vehicle: saline) was 116 % of control.
`NC(=S)c1cccc(S(N)(=O)=O)c1` was tested, and the T/C [7] was 100 % of control, the T/C [8] was 103 % of control and the T/C [9] was 103 % of control.
With `CC1(c2ccccc2)OCC(CCl)O1` (stereo not drawn) the T/C (dose: 222.0 mg/kg/injection, schedule: Q01DX Z (ip), vehicle: saline) was 95 % of control, the T/C (dose: 333.0 mg/kg/injection, schedule: Q01DX Z (ip), vehicle: saline) was 95 % of control and the T/C (dose: 500.0 mg/kg/injection, schedule: Q01DX Z (ip), vehicle: saline) was 91 % of control.
`CCC(=O)Nc1cccc(OC(C)=O)c1` was tested, and the T/C [10] was 91 % of control, the T/C [11] was 90 % of control and the T/C (dose: 400.0 mg/kg/injection, schedule: Q01DX009 (ip), vehicle: saline with Tween-80) was 107 % of control.
In the case of `O=C(COc1ccccc1)Nc1ccc[n+](Cc2ccc(S(=O)(=O)F)cc2)c1`, the T/C [5] is reported as 95 % of control and 118 % of control, the T/C [6] is reported as 101 % of control and 118 % of control and the T/C (dose: 400.0 mg/kg/injection, schedule: Q04DX003 (ip), vehicle: saline) is reported as 95 % of control and 114 % of control.
In the case of `Cc1cccc(C)c1Nc1cc(=O)[nH]c(=O)[nH]1`, the T/C (dose: 75.0 mg/kg/injection, schedule: Q01DX001 (ip), vehicle: saline with Tween-80) is reported as 106 % of control, the T/C (dose: 150.0 mg/kg/injection, schedule: Q01DX001 (ip), vehicle: saline with Tween-80) is reported as 89 % of control and the T/C (dose: 300.0 mg/kg/injection, schedule: Q01DX001 (ip), vehicle: saline with Tween-80) is reported as 96 % of control.
In the case of `CC1(C)CCCC2(C)C(=O)C3CCC2C31` (stereo not drawn), the T/C [7] is reported as 98 % of control, the T/C [8] is reported as 91 % of control and the T/C [9] is reported as 91 % of control.
`CCOC(=O)C(C)[P+](c1ccccc1)(c1ccccc1)c1ccccc1` (stereo not drawn) was tested, and the T/C (dose: 1.5 mg/kg/injection, schedule: Q01DX009 (ip), vehicle: saline) was 108 % of control, the T/C (dose: 1.5 mg/kg/injection, schedule: Q04DX003 (ip), vehicle: saline) was 98 % of control and the T/C (dose: 3.0 mg/kg/injection, schedule: Q01DX009 (ip), vehicle: saline) was 106 % of control. For the same compound, the T/C (dose: 3.0 mg/kg/injection, schedule: Q04DX003 (ip), vehicle: saline) was 108 % of control and the T/C (dose: 6.0 mg/kg/injection, schedule: Q04DX003 (ip), vehicle: saline) was 123 % of control.
`COc1ccc(C)cc1NC(=O)OCCOc1ccc(Br)cc1` was tested, and the T/C (dose: 50.0 mg/kg/injection, schedule: Q01DX009 (ip), vehicle: saline with Tween-80) was 90 % of control, the T/C [10] was 97 % of control and the T/C [11] was 87 % of control.
In the case of `O=C/C=C\C=C/Nc1ccc([N+](=O)[O-])cc1[N+](=O)[O-]`, the T/C (dose: 100.0 mg/kg/injection, schedule: Q04DX002 (ip), vehicle: DMSO) is reported as 94 % of control, the T/C (dose: 200.0 mg/kg/injection, schedule: Q04DX002 (ip), vehicle: DMSO) is reported as 98 % of control and the T/C (dose: 400.0 mg/kg/injection, schedule: Q04DX002 (ip), vehicle: DMSO) is reported as 102 % of control.
`O=C(c1ccccc1)C(C(c1ccccc1)N1CCOCC1)N1CCOCC1` (stereo not drawn) was tested, and the T/C [1] was 113 % of control, the T/C [2] was 102 % of control and the T/C [3] was 108 % of control. The T/C [4] was 102 % of control.
